# Where a SMILES comes first, the peptide text is derived from it.
# Key:
# galectin-7 (GAL-7) = experiment: GAL7 ELISA in deep bronchial brushings (DBB); format: in vivo, human; conditions: for GAL7 in DBB, Δ from baseline, median (IQR): Day 14 minus screening
# Description: (§1) Bronchoscopists were instructed to obtain a total of 6 brushings from 3 of the basilar bronchial segments of the right lower lobe: the anterior basilar segment, the lateral basilar segment, and the posterior basilar segment. With the bronchoscope proximal to or within the orifice of the appropriate basilar segment, the brush sheath was to be passed out 5 cm beyond the subsegment orifice, and then the brush was fully extended an additional 1 cm for a total of 6 cm beyond the orifice of the subsegmental bronchus. At the desired depth, the sheath was to be gently pulled back and forward for 15 strokes to brush the small airways. The brushing process was repeated using any combination of the 3 basilar segments described above, at the discretion of the bronchoscopist, for a total of 6 six separate brush samples.
# (§2) Protein isolation and preparation of DBB samples for ELISAs were performed as previously described[47] according to manufacturer’s instructions for COL1A1 (#ab210966, abcam), CXCL7 (#LS-F4967-1, LS Bio), GAL7 (#DY1339, R&D Systems), IL-11 (#DY218, R&D Systems), and TSLP (#DY1398, R&D Systems).
# (§3) Descriptive statistics are reported as medians with interquartile ranges (IQR). The Hodges-Lehmann estimator was used for the median difference between groups (treatment minus placebo), with approximate 90% confidence intervals (asymmetric, exact level varied slightly with small n). Cliff’s delta was calculated as effect size using the formula δ = (2U / (n1 × n2)) − 1, with thresholds: |δ | <0.3 small effect, 0.3–0.5 medium effect, >0.5 large effect. […] No adjustment for multiplicity was performed, as these were pre-specified, hypothesis-driven exploratory analyses. All biomarker statistical analyses were conducted using GraphPad Prism Version v10.0.
# dog = conditions: 28-day GLP study, delivered doses 8.9, 27.1 and 46.1 mg/kg/day, ref Investigator Brochure (IB); cited from earlier work
# Description: (§4) Pivotal 28-day Good Laboratory Practice (GLP) toxicity studies were performed in rats and dogs. These studies were designed such that the high dose levels would achieve at least a 50-fold margin over the proposed high clinical dose as recommended in International Council for Harmonisation (ICH)-M3(R2) guidelines.
# Sprague Dawley rats = conditions: 28-day GLP inhalation study, delivered doses 18.4, 58.5 and 109.3 mg/kg/day, ref Investigator Brochure (IB); cited from earlier work
# Description: as §4
# interleukin 11 (IL-11) = experiment: IL-11 ELISA in deep bronchial brushings (DBB); format: in vivo, human; conditions: for IL-11 in DBB, Δ from baseline, median (IQR): Day 14 minus screening
# Description: as §1, §2, §3
# [1] = tested on: phosphorylated (p) AKT over total AKT; experiment: AKT/pAKT in PBMCs, MSD-ECL assay; format: in vivo, human
# Description: Blood samples for biomarker assessments in PBMCs and platelet-rich plasma were collected prior to the initial dose and on day 14 following the last dose. Following optimization for detection of analytes in IPF matrices, meso-scale discovery electrochemiluminescence (MSD-ECL) assays were performed at BioAgylitix for SP-D (#K1519XR-2, MSD) in plasma and AKT/pAKT (#K15100D-1, MSD) in PBMCs according to manufacturer’s instructions.
# as §3
# [2] = tested on: collagen type 1 alpha chain 1 (COL1A1); experiment: COL1A1 ELISA in deep bronchial brushings (DBB); format: in vivo, human; conditions: for COL1A1 in DBB, Δ from baseline, median (IQR): Day 14 minus screening
# Description: as §1, §2, §3
# [3] = protocol, section 1.1.1.1; cited from earlier work
# Description: […]. "Antifibrotic therapy for idiopathic pulmonary fibrosis: time to treat." Respiratory research 20.1 (2019) ...
# [4] = tested on: chemokine (C-X-C motif) ligand 7 (CXCL7); experiment: CXCL7 ELISA in deep bronchial brushings (DBB); format: in vivo, human; conditions: for CXCL7 in DBB, Δ from baseline, median (IQR): Day 14 minus screening, N = 8; for CXCL7 in DBB, median difference vs placebo (Hodges-Lehmann): N = 8 vs pooled placebo N = 6
# Description: as §1, §2, §3
# Healthy Adult Subjects = conditions: cited from earlier work
# Description: Pivotal 28-day Good Laboratory Practice (GLP) toxicity studies were performed in rats and dogs. These studies were designed such that the high dose levels would achieve at least a 50-fold margin over the proposed high clinical dose as recommended in International Council for Harmonisation (ICH)-M3(R2) guidelines. […] These events were considered to be dose limiting and related to LTI-03. There was no evidence that the TEAEs in the 3 subjects described previously were secondary to an allergic response. In the 20 mg QD MAD cohorts there were mild decreases in FEV1 in two subjects that were not associated with TEAEs. These were not considered to be dose limiting. There were no serious adverse events (SAEs). All TEAEs were resolved 7 days after the treatment period. Further details can be ...
# [5] = 5 mg/day, N = 8 vs pooled placebo N = 6, one-tailed Mann-Whitney p = 0.0709
smiles,measurement,setting,value
CC(C)[C@H](NC(=O)[C@@H](NC(=O)[C@H](Cc1ccccc1)NC(=O)[C@@H](NC(=O)[C@@H](NC(=O)[C@@H](N)Cc1ccccc1)[C@@H](C)O)[C@@H](C)O)[C@@H](C)O)C(=O)N[C@H](C(=O)O)[C@@H](C)O [LTI-03] (H-FTTFTVT-OH; N-terminus and C-terminus assumed),"GAL7 in DBB, Δ from baseline, median (IQR)","galectin-7 (GAL-7); 5 mg/day, N = 8",250.8575 pg/mg protein
same,"GAL7 in DBB, median difference vs placebo (Hodges-Lehmann)",galectin-7 (GAL-7); [5],−4730 pg/mg protein
same,"GAL7 in DBB, Δ from baseline, median (IQR)","galectin-7 (GAL-7); 10 mg/day, N = 9",−726.395 pg/mg protein
same,"GAL7 in DBB, median difference vs placebo (Hodges-Lehmann)","galectin-7 (GAL-7); 10 mg/day, N = 9 vs pooled placebo N = 6, one-tailed Mann-Whitney p = 0.0332",−6048 pg/mg protein
same,"no observed adverse effect level (NOAEL), achieved delivered dose",dog,46.1 mg/kg/day
same,"no observed adverse effect level (NOAEL), achieved delivered dose",Sprague Dawley rats,109.3 mg/kg/day
same,"IL-11 in DBB, Δ from baseline, median (IQR)","interleukin 11 (IL-11); 5 mg/day, N = 8",−11.037 pg/mg protein
same,"IL-11 in DBB, median difference vs placebo (Hodges-Lehmann)","interleukin 11 (IL-11); 5 mg/day, N = 8 vs pooled placebo N = 6, one-tailed Mann-Whitney p = 0.0406",−21.71 pg/mg protein
same,"IL-11 in DBB, Δ from baseline, median (IQR)","interleukin 11 (IL-11); 10 mg/day, N = 9",−6.528 pg/mg protein
same,"IL-11 in DBB, median difference vs placebo (Hodges-Lehmann)","interleukin 11 (IL-11); 10 mg/day, N = 9 vs pooled placebo N = 6, one-tailed Mann-Whitney p = 0.044",−19.15 pg/mg protein
same,"%p-AKT in PBMCs, Cliff's delta vs placebo",[1]; 5 mg/day,−0.33
same,"%p-AKT in PBMCs, Cliff's delta vs placebo",[1]; 10 mg/day,−0.13
same,phosphorylated (p) AKT over total AKT levels in PBMCs,"[1]; 5 and 10 mg/day vs placebo, 14 days",did not change
same,"COL1A1 in DBB, Δ from baseline, median (IQR)","[2]; 5 mg/day, N = 8",0.16 pg/mg protein
same,"COL1A1 in DBB, median difference vs placebo (Hodges-Lehmann)",[2]; [5],−3.486 pg/mg protein
same,"COL1A1 in DBB, Δ from baseline, median (IQR)","[2]; 10 mg/day, N = 9",−11.9 pg/mg protein
same,"COL1A1 in DBB, median difference vs placebo (Hodges-Lehmann)","[2]; 10 mg/day, N = 9 vs pooled placebo N = 6, one-tailed Mann-Whitney p = 0.0248",−20.95 pg/mg protein
same,solubility in water,[3],limited solubility
same,"CXCL7 in DBB, Δ from baseline, median (IQR)",[4]; 5 mg/day,−100.2 ng/mg protein
same,"CXCL7 in DBB, median difference vs placebo (Hodges-Lehmann)","[4]; 5 mg/day, one-tailed Mann-Whitney p = 0.5",8.265 ng/mg protein
same,"CXCL7 in DBB, Δ from baseline, median (IQR)",[4]; 10 mg/day,−1276.23 ng/mg protein
same,"CXCL7 in DBB, median difference vs placebo (Hodges-Lehmann)","[4]; 10 mg/day, one-tailed Mann-Whitney p = 0.0248",−1262 ng/mg protein
same,"tolerability, 3 lower dose MAD cohorts","Healthy Adult Subjects; healthy adults, 2.5 mg QD, 5 mg QD, 5 mg BID inhaled for up to 14 days, ref study LTI-03-1001",well tolerated
same,"TEAEs secondary to pulmonary airflow limitation, 40 mg QD MAD cohort",Healthy Adult Subjects; in vivo,dose limiting
